The record followed here is patent publication US5126057A, “Disinfecting with N,N'-dihaloimidazolidin-4-ones” (Auburn Research Foundation, priority 1991, dated 1992).

Data set [1] relates to Pseudomonas aeruginosa (ATCC 27853). The data set is described as follows: Bactericidal efficacy, percent inactivation of P. aeruginosa. The data set is classed as cell-based. The following applies: pH 7.0, 22° C., DFW. On the procedure:
The halogenated imidazolidin-4-one derivatives prepared as in examples 3, 5, and 6 (Compounds 1, 5, and 3, respectively) were tested as bactericides against the microorganisms Staphylococcus aureus (ATCC25923) and Pseudomonas aeruginosa (ATCC 27853) in demand-free water (DFW) as a function of pH and temperature and in a synthetic-demand water (SDW) at pH 9.5 and 4° C. The demand-free and synthetic-demand waters were prepared as described in examples 7 and 12, respectively.
For the bactericidal efficacy tests 50 milliliters of buffered DFW or SDW were placed in a 125 milliliter flask which was then inoculated with the organism to be tested such that the final density of the organism was about 1×10^6 cfu/ml (colony forming units per milliliter). The inoculated solution was allowed to equilibrate at the test temperature by immersion in a thermostated water bath for 15 minutes with constant stirring. Then an appropriate amount of an aqueous solution containing the test halogenated imidazolidin-4-one compound maintained at the same test temperature was added to the inoculated solution to bring the total concentration of potential positive halogen (Cl^+ or Cl^+ /Br^+) in the mixture to a predetermined level (10 parts per million and 5 parts per million Cl^+ from compounds 1 and 3; the molar equivalent in Cl^+ /Br^+ from Compound 5). 1 milliliter aliquots were removed from the test mixture at various predetermined times, and the active halogen was quenched by 1 milliliter portions of sterile 0.02 Normal sodium thiosulfate. Serial dilutions were made into sterile saline, and three 25 microliter aliquots of each of the resulting dilutions were applied to the dried surface of a Petri dish containing tryptic soy and nutrient agars for plating S. aureus and P. aeruginosa, respectively. After 48 hours at 37° C. the three replicates for each dilution were counted and averaged. This average was used to compute the cfu/ml for that particular aliquot. Inactivation of the organism was considered to be at least 99.9999 percent when no colonies were detected in the thiosulfate quenched aliquots.

Data set [2] has as its system Staphylococcus aureus (ATCC 25923). The data set is described as follows: Disinfection of hard surfaces (modified AOAC Use-Dilution Method, stainless steel cylinders). Format: cell-based. The following applies: for bacterial growth after contact (in words): 25, 50, 100, 200 ppm positive chlorine (molar equivalents for Cpd 5), pH 7.0, 10 minutes contact; for minimal effective concentration: Staphylococcus aureus, ATCC25923, 10 min, 10 minutes contact, pH 7.0, read-out: effective hard surface disinfectant concentration. On the procedure: The efficacies of compounds 1 and 5 as hard surface disinfectants were assessed by using a modification of the AOAC Use-Dilution Method as described in "Official Methods of Analysis of the Association of Official Analytical Chemists", ed. W. Horwitz, A.O.A.C., Washington, D.C., 1989, pp. 58-59. Small stainless steel cylinders (Penicylinders from Fisher Scientific) were cleaned with 1 Normal sodium hydroxide solution, sterilized in 0.1 percent asparagine in an autoclave, and cooled to ambient temperature. The cylinders were then inoculated with Staphylococcus aureus (ATCC 25923) by placing them in a 24 hour old nutrient broth culture of the organism for 15 minutes. The cylinders were aseptically removed from the broth, placed in a sterile petri dish upon filter paper for draining, and dried at 37° C. in an incubator for 60 minutes.
The halogenated imidazolidin-4-ones were dissolved in demand-free water buffered at pH 7.0 at concentrations of 25, 50, 100, and 200 parts per million of potential ionizable positive chlorine for Compound 1 (or molar equivalents of total potential ionizable positive halogen for Compound 5), and 2 milliliter aliquots of the solutions were added to each of a series of sterile culture tubes. Control solutions of pH 7.0 demand-free water were also added to a series of tubes. At least 10 tubes at each concentration of disinfectant were employed. Then an inoculated metal cylinder was added to each tube containing disinfectant and each control tube at exactly 30 second intervals. After exactly 10 minutes contact time the cylinders were removed from the tubes at 30 second intervals in the same order as was used for their addition, i.e. the contact time was 10 minutes for all cylinders. Each metal cylinder was placed into a culture tube containing 3 milliliters of nutrient broth and 0.01 normal sodium thiosulfate to quench disinfectant action. All tubes were examined for bacterial growth (inspected for the presence or absence of turbidity) following 48 hours of incubation at 37° C.

Data set [3] is described as follows: Stability in demand-free water exposed to direct sunlight. The following applies: pH 7; for remaining at 3 h / remaining at 5 h / remaining at 10 h: demand-free water, direct sunlight. The data set is classed as physicochemical. On the procedure: The stabilities of compounds 1,5, and free chlorine from calcium hypochlorite (Compound 2) in water exposed to direct sunlight were determined. Each compound at the 10 milligrams per liter total chlorine concentration level (or at the molar equivalent for total halogen for Compound 5) was dissolved in 85 milliliters of demand-free water buffered at pH 7.0 in separate 100 milliliter beakers which were placed in a temperature-controlled water bath (22°-24° C.), and the bath containing the solutions was placed on the roof of the chemistry building at Auburn University exposed to direct sunlight during August 1988. Total potential positive halogen assays were made periodically on aliquots withdrawn over a 10 hour period using the standard iodometric titration technique.

Where two headings read alike, the source gives them in different places. A value given as a limit tells only on which side of the number the result lay.

The molecule `CC1(C)C(=O)N(Cl)C(C)(C)N1Cl` [Compound 1, 1,3-dichloro-2,2,5,5-tetramethylimidazolidin-4-one] showed a killing at 5 ppm in data set [1] (ATCC27853, 5 min, 5 minutes) of over 100%. In data set [1] (ATCC27853, 10 min, 10 minutes), this molecule showed a killing at 5 ppm of over 100%. In addition, in data set [2], the “bacterial growth after contact (in words)” value is given as “none of the tubes containing compounds 1 or 5 at any of the concentration levels exhibited bacterial growth”. Moreover, the minimal effective concentration in data set [2] (potential ionizable positive chlorine) is at most 25 µg/mL. Besides, in data set [3], the amount remaining at 3 h was 84.9%, the share remaining at 5 h came out at 74.8%, the fraction remaining at 10 h was determined as 51.2% and the “stability (in words)” value was “much more stable than free chlorine”.
`CC1(C)C(=O)N(Cl)C(C)(C)N1Br` [Compound 5, 1-bromo-3-chloro-2,2,5,5-tetramethylimidazolidin-4-one]: the killing at 5 ppm in data set [1] (ATCC27853, 5 min, 5 minutes) was over 100%. In data set [1] (ATCC27853, 10 min, 10 minutes), the killing at 5 ppm is over 100%. For the same molecule, in data set [2], the “bacterial growth after contact (in words)” value is listed as “none of the tubes containing compounds 1 or 5 at any of the concentration levels exhibited bacterial growth”. The minimal effective concentration in data set [2] (total potential positive halogen) was at most 40.7 µg/mL. Also, in data set [3], the fraction remaining at 3 h was 60.5%; the share remaining at 5 h came out at 45.7%; the share remaining at 10 h came to 14.9%; the “stability (in words)” value is “less stable than Compound 1, but significantly more stable than free chlorine”.
